According to publication PMC11673932, “A Novel Ginsenoside-Transforming α-L-Rhamnosidase from Bifidobacterium: Screening, Characterization and Application” (Biomolecules, 2024):

How the values were obtained:
[1] = system: T1, C118 (GST-C118), alpha-L-rhamnosidase; test: p-nitrophenol release, Michaelis-Menten fit; assay type: biochemical, Bifidobacterium sp.; settings: pH 6.0, 45 °C; pNPR 0.1-5.0 mM; enzyme 0.62 mg/mL
T1 construct: E. coli BL21(DE3); GH78 subfamily II; EC 3.2.1.40; predicted catalytic residues Glu478, Asp472, also W541, W600, L597, W532
Text: p-nitrophenol release, Michaelis-Menten fit on C118 (GST-C118), alpha-L-rhamnosidase

BD890 (Bd890, BdRham) = target: T2, BD890 (Bd890, BdRham) (Bifidobacterium dentium, UniProt D2Q797); test: conversion of Re to Rg1 in PPT-type ginsenoside mixture; assay type: biochemical; settings: cell lysate, 45 °C, Re 2.25 mg/mL in ginsenoside mixture
T2 construct: gene BDP_0161; GST-tag vector pBT7 (same expression system as C118), E. coli BL21(DE3), used as cell lysate; GH78
T2 sequence (D2Q797 1-890): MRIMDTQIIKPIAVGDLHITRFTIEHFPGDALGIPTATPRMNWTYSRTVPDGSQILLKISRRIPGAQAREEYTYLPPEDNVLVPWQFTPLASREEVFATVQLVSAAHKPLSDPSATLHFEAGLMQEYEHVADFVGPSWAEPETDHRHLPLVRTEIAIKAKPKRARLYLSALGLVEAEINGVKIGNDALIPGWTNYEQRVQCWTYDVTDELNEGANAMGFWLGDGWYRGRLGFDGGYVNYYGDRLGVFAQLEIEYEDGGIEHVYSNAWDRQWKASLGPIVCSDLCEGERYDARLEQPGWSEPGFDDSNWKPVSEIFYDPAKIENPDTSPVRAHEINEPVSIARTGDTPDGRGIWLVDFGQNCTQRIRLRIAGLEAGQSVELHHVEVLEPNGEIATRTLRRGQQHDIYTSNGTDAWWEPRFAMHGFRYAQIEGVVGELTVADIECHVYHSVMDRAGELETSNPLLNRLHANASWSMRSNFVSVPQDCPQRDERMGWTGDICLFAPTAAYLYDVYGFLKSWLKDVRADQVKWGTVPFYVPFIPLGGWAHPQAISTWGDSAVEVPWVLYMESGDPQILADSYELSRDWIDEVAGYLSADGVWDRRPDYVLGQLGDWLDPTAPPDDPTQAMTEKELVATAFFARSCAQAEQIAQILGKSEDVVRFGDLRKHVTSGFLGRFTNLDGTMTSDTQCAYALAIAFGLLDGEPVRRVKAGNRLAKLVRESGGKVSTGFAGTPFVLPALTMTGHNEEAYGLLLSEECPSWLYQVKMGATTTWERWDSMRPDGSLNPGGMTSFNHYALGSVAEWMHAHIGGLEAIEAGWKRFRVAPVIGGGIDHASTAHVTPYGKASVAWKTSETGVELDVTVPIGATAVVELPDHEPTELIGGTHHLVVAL

[2] = system: T1, C118 (GST-C118), alpha-L-rhamnosidase; test: product (Rg1) quantified, Michaelis-Menten fit; assay type: biochemical, Bifidobacterium sp.; settings: pH 6.0, 45 °C; Re 0.25-10.0 mg/mL; enzyme 0.62 mg/mL
Text: product (Rg1) quantified, Michaelis-Menten fit on C118 (GST-C118), alpha-L-rhamnosidase

Row | Km [1] | SMILES | % conversion after 12 h (BD890 (Bd890, BdRham)) | Km [2]
1 | 2030 µM | C[C@@H]1O[C@@H](Oc2ccc([N+](=O)[O-])cc2)[C@H](O)[C@H](O)[C@H]1O [p-nitrophenyl-α-L-rhamnopyranoside] |  | 
2 |  | CC(C)=CCC[C@](C)(O[C@@H]1O[C@H](CO)[C@@H](O)[C@H](O)[C@H]1O)[C@H]1CC[C@]2(C)[C@@H]1[C@H](O)C[C@@H]1[C@@]3(C)CC[C@H](O)C(C)(C)[C@@H]3[C@@H](O[C@@H]3O[C@H](CO)[C@@H](O)[C@H](O)[C@H]3O[C@@H]3O[C@@H](C)[C@H](O)[C@@H](O)[C@H]3O)C[C@]12C [Ginsenoside Re] | 54% | 544 µM
